Patent US10179173B2, “Semi-solid delivery systems” (Regents of the University of Minnesota, priority 2012, dated 2019)

How the values were obtained:
[1] = Solubility of drugs in water and in the semi-solid polymer; format: physicochemical; conditions: PCL-OE-1
[2] = In vitro drug release from drug loaded semi-solid polymer in buffered saline; format: physicochemical
Procedure: A certain amount of drugs (Ibuprofen or BSA) were grinded into fine particles and then mixed with certain amount of polymer in a glass vial. […] At certain time points, the buffer was removed for analysis and replaced with fresh buffer. The amount of Ibu released in the medium was measured by UV spectroscopy (Beckman Coulter, DU 640B spectrophotometer) for absorbance at 263 nm.

[3] = cited from earlier work
[4] = mouse, in vivo, sc
Procedure: In vivo biocompatibility of the polymer was evaluated by subcutaneous injection into mice through 18-gauge needles; 50 mg of polymer was injected for each mouse. At certain time point, mouse was sacrificed and the tissue of the injection site harvested, sectioned, and stained with H&E.

solubility in the semi-solid polymer [1]	duration of sustained release of Ibu from the semi-solid polymer ([2]; 5 wt % in PCL-OE-1, pH 7.4 and pH 5.0)	effect of pH on sustained release of Ibu ([2]; pH 7.4 versus pH 5.0)	Compound	solubility in water [3]	tissue damage or inflammatory response at injection site (H&E) [4]
excellent solubility	at least three	not affected by pH	CC(C)Cc1ccc(C(C)C(=O)O)cc1 (centres unmarked) [Ibu, Ibuprofen]	poor solubility in water	
			poly(ortho ester caprolactone) [PCL-OE-1]		No visible tissue damage or inflammatory response
